Data as given in patent US11666562B2, “Ilaprazole for inhibiting the release of enveloped viruses from cells” (Northwestern University, priority 2020, dated 2023).
Read-outs that look alike come from different tables or passages of the source.

Key:
HSV-1 = assay: Transmission electron microscopy of HSV-1 infected Vero cells, location of virus particles; format: cell-based, Herpes simplex virus-1 (Kos strain); conditions: HSV-1, 18 μM ilaprazole, 24 h
Procedure: FIG. 4. Inhibitory effect of Ilaprazole on HSV-2 and HSV-1 production. Vero cells infected with HSV-2 or HSV-1 at MOI of 0.1 and examined by transmission electron microscopy 24 h later. HSV-2 infected untreated cells (A & B) and cells treated with 18 μM ilaprazole (C & D). HSV-1 infected untreated cells (E & F) and cells treated with 18 μM ilaprazole (G & H). Eighty cells where virus particles were observed were examined. In the presence of ilaprazole, we observe no or very few particles in the cytoplasm. Treated cells also have an accumulation of electron dense material and particles associated with them. In untreated HSV-2 infected cells, we observed an average of 120 particles ranging from 28-204 […], and an average of 16 particles ranging from 10-22 in the nucleus. In treated HSV-2 infected cells, we observed 0 particles in the cytoplasm and an average of 31 particles ranging from 9-56 in the nucleus. In untreated HSV-1 infected cells we observed an average of 135 particles ranging from 12-152 in the cytoplasm, and an average of 35 particles ranging from 10-66 in the nucleus. In treated HSV-1 infected cells, we observed 0 particles in the cytoplasm and an average of 43 particles ranging from 15-166 in the nucleus. Arrows point to virus particles. Nuc, nucleus. Cyt, cytoplasm.
We next carried out a transmission electron microscopic examination of cells infected with HSV-2 at a MOI 0.1 in the presence and absence of 18 μM ilaprazole to determine if this drug causes the accumulation of virus particles in the nucleus of cells similar to tenatoprazole. […] In both heavily infected cells (FIGS. 4A & C) and mildly infected cells (FIGS. 4B & D), treatment lead to particles being detected in the nucleus and arrayed along the nuclear membrane but lacking in the cytosol. […] The lower total infectious virus detected in Table 3 (FIG. 7) is consistent with blockage of the virus passaging out of the nucleus into the cytoplasm where membranes are exchanged and virus becomes infectious. […]

HIV-1 = assay: Release of HIV-1 from transfected 293T cells, p24 in media; format: cell-based; conditions: 293T cells transfected with pR9-HIV-1Ba-L, read-out: EC50, inhibition of HIV-1 release
Procedure: Effect of Ilaprazole on release of HIV-1 in vitro. To establish the broad-spectrum potential of ilaprazole, we tested whether ilaprazole would inhibit the release of HIV-1 from 293T cells. To this end, cells were transfected with pR9-HIV-1Ba-L plasmid and release of virus into the media fraction was detected by monitoring the capsid (CA) protein (p24) via enzyme linked immunosorbent assay analysis. The drug was tested at concentrations between 0 and 40 μM and the effect of the drug on release of virus assessed (Table 4, shown in FIG. 8, column 2). Ilaprazole was effective at inhibiting the release of HIV-1 from cells with a calculated EC50 of 1 μM or less as described in Materials and Methods.
HIV-1 transfection of 293T cells. 293T cells (American Type Culture Collection) were grown in a 24-well Clear Flat Bottom TC-treated Multiwell Cell Culture Plate using Dulbecco's modified Eagle's medium (Cellgro) containing fetal bovine serum (10%), 100 U/ml penicillin, 100 μg/ml streptomycin, and 292 μg/ml 1-glutamine (Cellgro). […] Virus released from cells was quantified by media-associated p24 determined using fluorescently tagged CA targeting antibody (PerkinElmer) and equivalent amounts of p24 as standards.
Drug potency and cell toxicity. EC50 calculations were determined by using AAT Bioquest's EC50 calculator. […]

## COc1ccnc(C[S+]([O-])c2nc3ccc(-n4cccc4)cc3[nH]2)c1C (centres unmarked) [Ilaprazole, 2-[(4-methoxy-3-methylpyridin-2-yl)methylsulfinyl]-6-pyrrol-1-yl-1H-benzimidazole]
HSV-1
  Average number of virus particles in the nucleus: 43 particles
  Range of number of virus particles in the nucleus: 15-166 particles
  Virus particles in the cytoplasm: 0 particles
HIV-1
  EC50: ≤ 1 µM
HIV-1; Human immunodeficiency virus 1, HEK-293T
  EC50: 0.8 to 1.2 µM
